According to PMC9959048, “Lipidation of Naturally Occurring α-Helical Antimicrobial Peptides as a Promising Strategy for Drug Design” (International Journal of Molecular Sciences, 2023):
Converted amounts (≈) assume the structure as drawn. Residues, ends and D or L forms follow the SMILES beside them. *: point of attachment. Palmitoyl = CCCCCCCCCCCCCCCC(=O)*; Myristoyl = CCCCCCCCCCCCCC(=O)*; Lauroyl = CCCCCCCCCCCC(=O)*; Decanoyl = CCCCCCCCCC(=O)*; Octanoyl = CCCCCCCC(=O)*

Experiments:
[1] = system: C. parapsilosis CCM 8260; assay type: cell-based, Candida parapsilosis; conditions: RPMI-1640 with MOPS and 2% glucose, inoculum 5 × 10^3 CFU/mL, 24 h, 35 °C, absorbance 600 nm, triplicate
Protocol: (§1) The evaluation of the antimicrobial activity of the synthesized lipopeptides was performed against the following reference bacterial and fungal strains: Staphylococcus aureus PCM 1650, Staphylococcus aureus PCM 2054, Staphylococcus epidermidis PCM 521, Staphylococcus epidermidis PCM 2118, Escherichia coli PCM 2057, Candida albicans PCM 2566, Candida glabrata CCM 8270, Candida krusei CCM 8271, Candida parapsilosis CCM 8260.
(§2) For the initial cultivation of the bacteria and fungi, Luria-Bertani broth (LB, Biomaxima, Lublin, Poland) and Sabouraud Dextrose broth (SB, Biomaxima, Lublin, Poland) were used, respectively. Antimicrobial properties of the compounds were analyzed through the determination of MIC (minimal inhibitory concentrations) by my means of the serial micro-dilution technique according to the guidelines of Clinical & Laboratory Standard Institute (CLSI) established for aerobic bacteria and yeasts.
(§3) According to the procedures, Mueller–Hinton broth (MHB) was used as the working medium for the analysis of the bacterial susceptibility, while RPMI-1640 (with L-glutamine, without sodium bicarbonate) growth medium buffered with MOPS (morpholinepropanesulfonic acid) and supplemented with 2% glucose was used for the experiments with the fungi.
(§4) The experiments were carried out for 24 h at 37 and 35 °C for the bacteria and fungi, respectively. Then, the absorbance was measured at 600 nm for each well of the 96-well plate using a microplate reader (Sunrise TM, Tecan Trading AG, Männedorf, Switzerland). Based on the obtained results, the degree of inhibition of the growth of microorganisms (expressed in %) in the presence of the tested compounds range was determined with respect to the control probes. Inoculated wells without peptide were treated as a positive control (100% growth), and the wells containing working medium only were defined as a negative control (0% growth). All measurements were repeated in triplicate.

[2] = system: E. coli PCM2057; assay type: cell-based, Escherichia coli; conditions: Mueller–Hinton broth, inoculum 5 × 10^5 CFU/mL, 24 h, 37 °C, absorbance 600 nm, triplicate
Protocol: as §1, §2, §3, §4

[3] = system: C. albicans PCM2566; assay type: cell-based, Candida albicans; conditions: RPMI-1640 with MOPS and 2% glucose, inoculum 5 × 10^3 CFU/mL, 24 h, 35 °C, absorbance 600 nm, triplicate
Protocol: as §1, §2, §3, §4

[4] = system: S. epidermidis PCM521; assay type: cell-based, Staphylococcus epidermidis; conditions: Mueller–Hinton broth, inoculum 5 × 10^5 CFU/mL, 24 h, 37 °C, absorbance 600 nm, triplicate
Protocol: as §1, §2, §3, §4

[5] = system: S. epidermidis PCM2118; assay type: cell-based, Staphylococcus epidermidis; conditions: Mueller–Hinton broth, inoculum 5 × 10^5 CFU/mL, 24 h, 37 °C, absorbance 600 nm, triplicate
Protocol: as §1, §2, §3, §4

[6] = system: C. krusei CCM8271; assay type: cell-based, Candida krusei; conditions: RPMI-1640 with MOPS and 2% glucose, inoculum 5 × 10^3 CFU/mL, 24 h, 35 °C, absorbance 600 nm, triplicate
Protocol: as §1, §2, §3, §4

[7] = target: POPG LUVs; assay: Isothermal titration calorimetry, binding to POPG LUVs; conditions: ITC, 25 °C, 0.05 or 0.07 mM peptide titrated with 1.3 or 1.8 mM POPG LUVs; one set of sites model (C10-LL-I: two sets of sites, first line)
Protocol: (§5) Large unilamellar vesicles (LUV) were obtained by extrusion of MLV liposomes through polycarbonate membrane filters with a pore diameter of 100 nm (Whatman International Ltd., Kent, UK) using a mini-extruder (Avanti Polar Lipids, Inc., Alabaster, AL, USA).
The thermodynamic parameters of the interactions of the lipopeptides with POPG and POPC liposomes were determined by isothermal titration calorimetry (ITC). Measurements were performed at 25 °C using an AutoITC microcalorimeter (MicroCal Inc., Northampton, MA, USA) with a 1.4491 mL sample and reference cells. The experiment consisted in the titration of a buffered peptide solution with a concentration of 0.05 and/or 0.07 mM with a buffered solution containing POPG or POPC LUVs with a lipid concentration of 1.3 and 1.8 mM (10.02 µL; 29 injections, 2 µL for the first injection only), as it was described previously. The result of the titration was a thermogram showing a series of peaks corresponding to the titration steps. A titration curve was obtained after integration of the peak areas. The obtained isotherms were fitted to the “one set of sites” or “two sets of sites” models available in the ORIGIN 7.0 (MicroCal Inc., Northampton, MA, USA), which made it possible to determine the enthalpy (ΔH), the binding constant (KITC) and the stoichiometry (N) of the interactions between the lipopeptide and the lipids. The following formula was used to calculate the entropy change (ΔS) and the Gibbs free energy (ΔG): ΔG=−RTln(55.5KITC)=ΔH−TΔS where: factor 55.5 is the molar concentration of water, R is the gas constant (1.986 cal·mol^−1·K^−1), and T is the absolute temperature.

[8] = system: POPC liposomes; assay: CD, α-helix content in POPC liposomes; assay type: physicochemical; conditions: 25 °C, peptide 0.15 mg/mL, 1.3 mM POPC; for α-Helix percentage, POPC: from ellipticity at 222 nm
Protocol: as §5
(§6) CD experiments were carried out at 25 °C using a Jasco J-815 spectropolarimeter in the wavelength range 185–260 nm. The concentration of the lipopeptides was 0.15 mg/mL. The CD spectra were recorded in water, PBS (pH 7.4), 1.3 mM POPC and 1.3 mM POPG. The results are plotted as the mean molar ellipticity per one amino acid residue (MRME, deg cm^2 dmol^−1) as a function of the wavelength (nm). Additionally, we performed a conformational analysis of the selected compounds in the presence of S. aureus cells. […] The mixtures were then incubated for 2 h before recording the CD spectra.
(§7) The percentage of the α-helical structure was calculated based on the mean molar ellipticity at 222 nm using the formula: fH=θ222−3000/−36000−3000·100% where θ222 corresponds to the value of the mean molar ellipticity at a wavelength of 222 nm.

[9] = system: C. glabrata CCM8270; assay type: cell-based, Candida glabrata; conditions: RPMI-1640 with MOPS and 2% glucose, inoculum 5 × 10^3 CFU/mL, 24 h, 35 °C, absorbance 600 nm, triplicate
Protocol: as §1, §2, §3, §4

[10] = system: human breast cancer cells (MCF-7 line, ATCC); assay: MTT cytotoxicity assay; assay type: cell-based; conditions: IC50 against HaCaT divided by IC50 for MCF-7
Protocol: (§8) The prepared plates were further incubated for 48 h. […] The control cell viability was assumed to be 100%. Three independent experiments were carried out in three repetitions.

[11] = system: human prostate cancer cells (PC3 line, ATCC); assay: MTT cytotoxicity assay; assay type: cell-based; conditions: IC50 against HaCaT divided by IC50 for PC3
Protocol: as §8

[12] = system: POPG liposomes; assay: CD, α-helix content in POPG liposomes; assay type: physicochemical; conditions: 25 °C, peptide 0.15 mg/mL, 1.3 mM POPG, from ellipticity at 222 nm
Protocol: as §5, §6, §7

[13] = Dynamic light scattering of lipopeptide assemblies; assay type: physicochemical; conditions: DLS, sonicated 10 min, incubated 1 h, 90° side scatter
Protocol: The hydrodynamic diameters of the lipopeptide nanoaggregates were examined by the Litesizer 500 (Anton-Paar GmbH, Graz, Austria) at 25 °C. The measurements were carried out at various lipopeptide concentrations ranging from 0.5 to 2 mM and from 0.25 to 2 mM, in water and PBS, respectively. Two-fold serial dilutions were used to obtain the sequential concentrations. Each sample was sonicated for 10 min followed by incubation for 1 h at 25 °C and transferred to the polystyrene cuvette. The detector was positioned at a side scatter position (90°). The analysis of the obtained results and report generation was performed with KalliopeTM software (Anton-Paar GmbH, Graz, Austria).

[14] = system: S. aureus PCM2054; assay type: cell-based, Staphylococcus aureus; conditions: Mueller–Hinton broth, inoculum 5 × 10^5 CFU/mL, 24 h, 37 °C, absorbance 600 nm, triplicate
Protocol: as §1, §2, §3, §4

[15] = system: fungi Candida spps; assay: MIC, antifungal activity; assay type: cell-based; conditions: text summary of Table 1, Candida strains
Protocol: as §1
as §2, with “yeasts. […]” for “yeasts.”
as §4, with “Inoculated wells without peptide were treated as a positive control (100% growth), and the wells containing working medium only were defined as a negative control (0% growth). All measurements were repeated in triplicate.” left out

[16] = system: S. aureus PCM1650; assay type: cell-based, Staphylococcus aureus; conditions: Mueller–Hinton broth, inoculum 5 × 10^5 CFU/mL, 24 h, 37 °C, absorbance 600 nm, triplicate
Protocol: as §1, §2, §3, §4

SMILES	MIC, C. parapsilosis CCM 8260 [1]	MIC, E. coli PCM2057 [2]	MIC, C. albicans PCM2566 [3]	MIC, S. epidermidis PCM521 [4]	MIC, S. epidermidis PCM2118 [5]	MIC, C. krusei CCM8271 [6]	pKITC, POPG [7]	θ222/θ208, POPC [8]	α-Helix percentage, POPC [8]	MIC, C. glabrata CCM8270 [9]	SI MCF-7 [10]	SI PC3 [11]	α-Helix percentage, POPG [12]	hydrodynamic diameter, peak of highest scattering intensity ([13]; 0.25 mM in PBS pH 7.4, 25 °C)	hydrodynamic diameter, peak of highest scattering intensity ([13]; 0.5 mM salt-free aqueous solution, 25 °C)	hydrodynamic diameter ([13]; 2 mM in PBS pH 7.4, 25 °C)	MIC, S. aureus PCM2054 [14]	MIC, antifungal activity [15]	MIC, S. aureus PCM1650 [16]
CCCCCCCCCC(=O)N[C@@H](CCCCN)C(=O)N[C@@H](CCCNC(=N)N)C(=O)N[C@@H](Cc1ccccc1)C(=O)N[C@@H](CCCCN)C(=O)N[C@@H](CCCCN)C(=O)N[C@@H](Cc1ccccc1)C(=O)N[C@@H](Cc1ccccc1)C(=O)N[C@@H](CCCCN)C(=O)N[C@@H](CCCCN)C(=O)N[C@@H](CC(C)C)C(=O)N[C@@H](CCCCN)C(N)=O [C10-ATRA-1] (Decanoyl-KRFKKFFKKLK-NH2)	25 µg/mL (≈ 15.1 µM)	31.25 µg/mL (≈ 18.9 µM)	50 µg/mL (≈ 30.3 µM)	3.13 µg/mL (≈ 1.9 µM)	3.13 µg/mL (≈ 1.9 µM)	12.5 µg/mL (≈ 7.57 µM)	7.06 ± 0.61	0.65	14%	>50 µg/mL	9.47	3.92	17%	2808 ± 1193 nm	284 ± 105 nm	1040 ± 343 nm	3.9 µg/mL (≈ 2.36 µM)		
CCCCCCCCCCCCCCCC(=O)N[C@@H](CCCCN)C(=O)N[C@@H](CCCNC(=N)N)C(=O)N[C@@H](Cc1ccccc1)C(=O)N[C@@H](CCCCN)C(=O)N[C@@H](CCCCN)C(=O)N[C@@H](Cc1ccccc1)C(=O)N[C@@H](Cc1ccccc1)C(=O)N[C@@H](CCCCN)C(=O)N[C@@H](CCCCN)C(=O)N[C@@H](CC(C)C)C(=O)N[C@@H](CCCCN)C(N)=O [C16-ATRA-1] (Palmitoyl-KRFKKFFKKLK-NH2)	3.13 µg/mL (≈ 1.8 µM)	>50 µg/mL	2.5 µg/mL (≈ 1.44 µM)	25 µg/mL (≈ 14.4 µM)	12.5 µg/mL (≈ 7.2 µM)	2.5 µg/mL (≈ 1.44 µM)				3.13 µg/mL (≈ 1.8 µM)							>50 µg/mL	≤ 3.13 µg/mL	
CCCCCCCCCCCCCC(=O)N[C@@H](CCCCN)C(=O)N[C@@H](CCCNC(=N)N)C(=O)N[C@@H](Cc1ccccc1)C(=O)N[C@@H](CCCCN)C(=O)N[C@@H](CCCCN)C(=O)N[C@@H](Cc1ccccc1)C(=O)N[C@@H](Cc1ccccc1)C(=O)N[C@@H](CCCCN)C(=O)N[C@@H](CCCCN)C(=O)N[C@@H](CC(C)C)C(=O)N[C@@H](CCCCN)C(N)=O [C14-ATRA-1] (Myristoyl-KRFKKFFKKLK-NH2)	3.13 µg/mL (≈ 1.83 µM)	>50 µg/mL	2.5 µg/mL (≈ 1.46 µM)	25 µg/mL (≈ 14.6 µM)	6.25 µg/mL (≈ 3.66 µM)	2.5 µg/mL (≈ 1.46 µM)				3.13 µg/mL (≈ 1.83 µM)							3.9 µg/mL (≈ 2.28 µM)		12.5 µg/mL (≈ 7.32 µM)
CCCCCCCC(=O)N[C@@H](CCCCN)C(=O)N[C@@H](CCCNC(=N)N)C(=O)N[C@@H](Cc1ccccc1)C(=O)N[C@@H](CCCCN)C(=O)N[C@@H](CCCCN)C(=O)N[C@@H](Cc1ccccc1)C(=O)N[C@@H](Cc1ccccc1)C(=O)N[C@@H](CCCCN)C(=O)N[C@@H](CCCCN)C(=O)N[C@@H](CC(C)C)C(=O)N[C@@H](CCCCN)C(N)=O [C8-ATRA-1] (Octanoyl-KRFKKFFKKLK-NH2)	50 µg/mL (≈ 30.8 µM)	>50 µg/mL	>50 µg/mL	3.13 µg/mL (≈ 1.93 µM)	3.13 µg/mL (≈ 1.93 µM)	12.5 µg/mL (≈ 7.7 µM)	5.78 ± 0.27	0.38	11%	>50 µg/mL	8.55	2.29	20%				7.8 µg/mL (≈ 4.81 µM)		
CCCCCCCCCCCC(=O)N[C@H](C(=O)N[C@@H](CC(N)=O)C(=O)N[C@@H](Cc1c[nH]c2ccccc12)C(=O)N[C@@H](CCCCN)C(=O)N[C@@H](CCCCN)C(=O)N[C@H](C(=O)N[C@@H](CC(C)C)C(=O)NCC(=O)N[C@@H](CCCCN)C(=O)N[C@H](C(=O)N[C@H](C(=O)N[C@@H](CCCCN)C(=O)N[C@H](C(=O)N[C@@H](C)C(=O)N[C@@H](CCCCN)C(N)=O)C(C)C)[C@@H](C)CC)[C@@H](C)CC)C(C)C)C(C)C [C12-LL-I] (Lauroyl-VNWKKVLGKIIKVAK-NH2)	3.13 µg/mL (≈ 1.64 µM)	>50 µg/mL	>50 µg/mL	12.5 µg/mL (≈ 6.56 µM)	6.25 µg/mL (≈ 3.28 µM)	12.5 µg/mL (≈ 6.56 µM)				12.5 µg/mL (≈ 6.56 µM)							12.5 µg/mL (≈ 6.56 µM)		12.5 µg/mL (≈ 6.56 µM)
